Data reported in patent publication US20090305886A1, “Pesticidal Mixtures” (BASF SE, priority 2006, published 2009).

Experiments:
Assay type in all cases: in vivo
[1] = tested on: Boll Weevil (Anthonomus grandis); assay: Boll Weevil (Anthonomus grandis) egg microtiterplate test
Experimental: Boll Weevil (Anthonomus grandis)
The active compounds are formulated in 1:3 DMSO:water. 10 to 15 eggs are placed into microtiterplates filled with 2% agar-agar in water and 300 ppm formaline. The eggs are sprayed with 20 μl of the test solution, the plates are sealed with pierced foils and kept at 24-26° C. and 75-85% humidity with a day/night cycle for 3 to 5 days. Mortality is assessed on the basis of the remaining unhatched eggs or larvae on the agar surface and/or quantity and depth of the digging channels caused by the hatched larvae. Tests are replicated 2 times.
(§1) The presence of a synergistic effect in terms of percent control, between the two mixing partners (X and Y) is calculated using the Colby equation (Colby, S. R., 1967, Calculating Synergistic and Antagonistic Responses in Herbicide Combinations, Weeds, 15, 20-22):
(§2) When the observed combined control effect is greater than the expected combined control effect (E), then the combined effect is synergistic.

[2] = tested on: Mediterranean Fruitfly (Ceratitis capitata); assay: Mediterranean Fruitfly (Ceratitis capitata) egg microtiterplate test
Experimental: Mediterranean Fruitfly (Ceratitis capitata)
(§3) The active compounds are formulated in 1:3 DMSO:water. 50 to 80 eggs are placed into microtiterplates filled with 0.5% agar-agar and 14% diet in water. The eggs are sprayed with 5 μl of the test solution, the plates are sealed with pierced foils and kept at 27-29° C. and 75-85% humidity under fluorescent light for 6 days. Mortality is assessed on the basis of the agility of the hatched larvae. Tests are replicated 2 times.
as §1, §2

[3] = tested on: Vetch Aphid (Megoura viciae); assay: Vetch Aphid (Megoura viciae) leaf disk microtiterplate test
Experimental: Vetch Aphid (Megoura viciae)
The active compounds are formulated in 1:3 DMSO:water. Bean leaf disks are placed into microtiterplates filled with 0.8% agar-agar and 2.5 ppm OPUS™. The leaf disks are sprayed with 2.5 μl of the test solution and 5 to 8 adult aphids are placed into the microtiterplates which are then closed and kept at 22-24° C. and 35-45% under fluorescent light for 6 days. Mortality is assessed on the basis of vital, reproduced aphids. Tests are replicated 2 times.
as §1, §2

[4] = tested on: Tobacco Budworm (Heliothis virescens); assay: Tobacco Budworm (Heliothis virescens) test protocol no. II
Experimental: Tobacco Budworm (Heliothis virescens)—Test Protocol no. II
as §3, with “DMSO:water. 15” for “DMSO:water. 50”, “to 25” for “to 80”, “with diet.” for “with 0.5% agar-agar and 14% diet in water.”, “with 10” for “with 5”, “agility and of comparative feeding” for “agility”
as §1, §2

[5] = 0 + 0.1 ppm (compound I-1 alone)
[6] = 0 + 100 ppm (compound I-1 alone)
[7] = 0 + 0.3 ppm (compound I-1 alone)

## CC(C)N1C(=O)N(c2ccccc2)CS/C1=N\C(C)(C)C [buprofezine]
[1]; 10 + 0 ppm (buprofezine alone)
  Average Control %: 0%
[2]; 3 + 0 ppm (buprofezine alone)
  Average Control %: 0%

## N#CC(C#N)(CCC(F)(F)F)CC(F)(F)C(F)(F)C(F)(F)C(F)F [compound I-1, 2-(2,2,3,3,4,4,5,5-octafluoro-pentyl)-2-(3,3,3-trifluoro-propyl)-malononitrile]
[3]; [5]
  Average Control %: 0%
[3]; [6]
  Average Control %: 0%
[1]; [5]
  Average Control %: 0%
[1]; [7]
  Average Control %: 0%
[1]; 0 + 3 ppm (compound I-1 alone)
  Average Control %: 0%
[2]; [5]
  Average Control %: 0%
[2]; 0 + 30 ppm (compound I-1 alone)
  Average Control %: 0%
[2]; [6]
  Average Control %: 0%
[4]; [7]
  Average Control %: 0%

## CC(C)c1cc(Oc2ccccc2)cc(C(C)C)c1NC(=S)NC(C)(C)C [diafenthiuron]
[4]; 300 + 0 ppm (diafenthiuron alone)
  Average Control %: 0%

## N#Cc1nn(-c2c(Cl)cc(C(F)(F)F)cc2Cl)c(N)c1[S+]([O-])C(F)(F)F (stereo not drawn) [fipronil]
[3]; 3 + 0 ppm (fipronil alone)
  Average Control %: 50%
[1]; 1 + 0 ppm (fipronil alone)
  Average Control %: 0%
[2]; 1 + 0 ppm (fipronil alone)
  Average Control %: 0%

## O=[N+]([O-])NC1=NCCN1Cc1ccc(Cl)nc1 [imidacloprid]
[1]; 3 + 0 ppm (imidacloprid alone)
  Average Control %: 0%

## spinosad
[3]; 300 + 0 ppm (spinosad alone)
  Average Control %: 0%
[2]; 0.3 + 0 ppm (spinosad alone)
  Average Control %: 0%
